Measured values from publication PMC9100072, “Modulation of the MOP Receptor (μ Opioid Receptor) by Imidazo[1,2-a]imidazole-5,6-Diones: In Search of the Elucidation of the Mechanism of Action” (Molecules, 2022).
Several values for one entry are separate records, joined by “and”; a condition that tells them apart may be missing. Equal entries are not always repeated. Where two headings read alike, the source gives them in different places.

Columns and labels:
human μ-opioid receptor = target: T1, human μ-opioid receptor (Homo sapiens, UniProt P35372); experiment: biochemical; type: binding; conditions: for binding to the μ-opioid receptor: tested concentrations 10^−5–10^−10 M
T1 construct: purchased Perkin Elmer ES-542-M400UA; host or cells: CHO-K1 cells, stably transfected (membranes)
T1 sequence (P35372 whole entry): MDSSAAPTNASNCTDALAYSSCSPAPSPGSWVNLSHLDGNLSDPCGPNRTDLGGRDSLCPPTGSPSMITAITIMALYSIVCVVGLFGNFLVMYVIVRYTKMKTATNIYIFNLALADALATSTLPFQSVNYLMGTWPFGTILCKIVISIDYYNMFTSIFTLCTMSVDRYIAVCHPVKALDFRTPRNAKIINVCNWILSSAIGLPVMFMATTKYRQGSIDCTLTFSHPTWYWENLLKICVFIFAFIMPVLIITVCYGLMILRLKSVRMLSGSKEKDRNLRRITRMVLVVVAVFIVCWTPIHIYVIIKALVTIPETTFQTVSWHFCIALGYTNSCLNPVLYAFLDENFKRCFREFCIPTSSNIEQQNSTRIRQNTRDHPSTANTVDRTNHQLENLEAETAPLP
Description: The reaction was terminated by rapid filtration through GF/B filter mate presoaked with 0.5% polyethyleneimine for 30 min. […] Data were fitted to a one-site curve-fitting equation with Prism 6 (GraphPad Software), and Ki values were estimated from the Cheng–Prusoff equation.

[1] = target: T2, human μ-opioid (OP3) receptor (Homo sapiens, UniProt P35372); experiment: cell-based; type: cell-based; parameters: Emax: dose or concentration left out as unconfirmed
T2 sequence (P35372 whole entry): as above

[2] = target: T2, human μ-opioid (OP3) receptor; experiment: cell-based; conditions: for Emax at 0.03 µM / Emax: U2OS; for Emax at 0.03 µM: read-out: Emax% (EC87: 30 nM) Antagonist Mode
[3] = CHO-K1; read-out: Emax% Agonist Mode
[4] = CHO-K1; read-out: Emax% Antagonist Mode
[5] = read-out: Emax% (EC20: 1 nM) Antagonist Mode
[6] = CHO-K1, read-out: Emax% Antagonist Mode

| Structure (SMILES) | binding to the μ-opioid receptor (human μ-opioid receptor) | Emax [1, 3] [%] | Emax [1, 4] [%] | Emax at 0.0046 µM [1, 4] [%] | Emax at 0.03 µM [1, 4] [%] | Emax at 0.03 µM [2] [%] | Emax [2, 5] [%] | Emax ([2]; read-out: Emax% Agonist Mode) [%] | melting point [°C] | Emax% Antagonist Mode [1] | also measured |
| --- | --- | --- | --- | --- | --- | --- | --- | --- | --- | --- | --- |
| O=C1N=C2N(CCN2c2ccccc2)C1=O [1a] | No binding | 15 | 6 | 4 | 9 | 22 | 92 | 8 | – | – | – |
| Cc1cccc(N2CCN3C(=O)C(=O)N=C32)c1 [1b] | No binding | 13 | 10 | 6 | – | 12 | 94 | 13 | 220 to 223 | 5% | – |
| Cc1ccc(N2CCN3C(=O)C(=O)N=C32)cc1 [1c, 1-(4-methylphenyl)-2,3-dihydro-1H-imidazo[1,2-a]imidazole-5,6-dione] | No binding | 13 | 35 | 4 | – | 12 | 97 | 15 | 236 to 238 | – | pharmacological classification in words ([1]; from cAMP functional data (with binding data for the modulator conclusion)): weak antagonist properties; pharmacological classification in words ([1]; from cAMP functional data (with binding data for the modulator conclusion); listed as 1-(4-methylphenyl)-2,3-dihydro-1H-imidazo[1,2-a]imidazole-5,6-dione): negative allosteric modulator; Kb ([1]; pKb Range Antagonist Mode): 0.661 nM; Kb ([1]; read-out: pKb Range Antagonist Mode (converted)): 8.91 nM |
| O=C1N=C2N(CCN2c2cccc(Cl)c2)C1=O [1d] | No binding | 13 | 22 | 4 | 5 | 9 | 92 | 15 | 279 to 280 | – | – |
| O=C1N=C2N(CCN2c2ccc(Cl)cc2)C1=O [1e] | No binding | 13 | 8 | 12 | 5 | 19 | 89 | 14 | – | 3% | – |
| C[C@@H](O)[C@H](NC(=O)[C@H]1NC(=O)[C@H]([C@@H](C)O)NC(=O)[C@H](CCCNC(=N)N)NC(=O)[C@@H](Cc2c[nH]c3ccccc23)NC(=O)[C@H](Cc2ccc(O)cc2)NC(=O)[C@@H](NC(=O)[C@H](N)Cc2ccccc2)CSSC1(C)C)C(N)=O [CTAP, {d-Phe}-Cys-Tyr-{d-Trp}-Arg-Thr-{Pen}-Thr-NH2 (disulfide bridge: Cys2-Pen7), reference compound] | – | – | – | – | – | – | – | – | – | – | Ki (human μ-opioid receptor): 4.9 nM; Emax ([1]; CHO-K1, read-out: Emax% Agonist Mode): 12%; Emax [1, 6]: 100%; Emax at 0.0046 µM [1, 6]: 100%; Emax at 0.03 µM [1, 6]: 116% |
| C[C@@H](NC(=O)[C@@H](N)Cc1ccc(O)cc1)C(=O)NCC(=O)N(C)[C@@H](Cc1ccccc1)C(=O)NCCO [DAMGO, (2S)-2-[[2-[[(2R)-2-[[(2S)-2-Amino-3-(4-hydroxyphenyl)propanoyl]-amino]-propanoyl]amino]acetyl]-methylamino]-N-(2-hydroxyethyl)-3-phenylpropanamide, reference compound] | – | – | – | – | – | – | – | – | – | 2% | EC20 of DAMGO [1]: 1 nM; EC80 of DAMGO [1]: 18 nM; EC87 of DAMGO [1]: 30 nM; Emax [1, 6]: 0%; Emax at 0.0046 µM [1, 6]: 0% |
| COC(=O)/C=C/C(=O)N[C@@H]1CC[C@@]2(O)[C@H]3Cc4ccc(O)c5c4[C@@]2(CCN3CC2CC2)[C@H]1O5 [ß-FUNALTREXAMINE, beta-funaltrexamine, reference compound] | – | – | – | – | – | – | – | – | – | 66% and 40% and 46% and 42% | pKi Range (human μ-opioid receptor): 9.13 (9.10–9.15); Emax% Agonist Mode [1]: 17%; Emax% (EC20: 1 nM) Antagonist Mode [2]: 122%; Emax% (EC87: 30 nM) Antagonist Mode [2]: 127%; Emax% Agonist Mode ([2]; β-arrestin recruitment, fraction of effect of DAMGO): 10% |
